In ChEMBL document CHEMBL5154941, “Structural Modifications of Nimodipine Lead to Novel PDE1 Inhibitors with Anti-pulmonary Fibrosis Effects” (J Med Chem, 2022):
Active and inactive are the calls of the source. The calls are words filed in the database; no cut-off is given here.

Key:
[1] = molecular target: Dual specificity calcium/calmodulin-dependent 3',5'-cyclic nucleotide phosphodiesterase 1C (Homo sapiens, UniProt Q14123); test: Inhibition of PDE1C (147 to 531 residues) (unknown origin) expressed in Escherichia coli BL21 using [3H]-cGMP as substrate measured for 15 mins by liquid scintillation counter method
Sequence of Dual specificity calcium/calmodulin-dependent 3',5'-cyclic nucleotide phosphodiesterase 1C (Q14123 whole entry, the tested form may be a part): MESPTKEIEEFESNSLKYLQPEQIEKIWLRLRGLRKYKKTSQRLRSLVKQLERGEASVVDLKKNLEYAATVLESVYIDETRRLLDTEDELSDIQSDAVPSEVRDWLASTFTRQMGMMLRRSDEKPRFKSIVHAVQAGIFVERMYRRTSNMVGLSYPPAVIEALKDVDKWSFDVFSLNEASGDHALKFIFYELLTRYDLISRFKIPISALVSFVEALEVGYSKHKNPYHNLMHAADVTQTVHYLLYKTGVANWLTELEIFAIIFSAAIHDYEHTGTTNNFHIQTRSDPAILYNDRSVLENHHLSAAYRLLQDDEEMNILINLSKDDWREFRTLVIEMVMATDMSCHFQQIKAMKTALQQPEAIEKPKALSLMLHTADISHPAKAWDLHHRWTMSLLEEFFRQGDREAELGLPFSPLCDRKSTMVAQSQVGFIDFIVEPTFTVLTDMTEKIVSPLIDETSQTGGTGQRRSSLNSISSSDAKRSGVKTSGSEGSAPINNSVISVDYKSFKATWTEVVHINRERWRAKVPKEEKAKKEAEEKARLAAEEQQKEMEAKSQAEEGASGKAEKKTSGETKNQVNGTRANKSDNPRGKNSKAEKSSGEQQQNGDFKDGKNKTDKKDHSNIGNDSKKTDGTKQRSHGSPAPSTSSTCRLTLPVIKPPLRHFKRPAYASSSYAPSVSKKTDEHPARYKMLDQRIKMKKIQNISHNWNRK

Homo sapiens = species: Homo sapiens; test: Selectivity ratio of IC50 for PDE4D (unknown origin) expressed in Escherichia coli BL21 to IC50 for PDE1C (147 to 531 residues) (unknown origin) expressed in Escherichia coli BL21
Rattus norvegicus [2] = test: Antifibrotic activity in bleomycin-induced Sprague-Dawley rat lung fibrosis model assessed as decrease in fibronectin level at 150 mg/kg, po administered daily for 28 days by Western blot analysis; assay type: functional, organism-based; conditions: time 28.0 day
Rattus norvegicus [3] = test: Antifibrotic activity in bleomycin-induced Sprague-Dawley rat lung fibrosis model assessed as decrease in collagen I level at 150 mg/kg, po administered daily for 28 days by Western blot analysis; assay type: functional, organism-based; conditions: time 28.0 day
Rattus norvegicus [4] = test: Antifibrotic activity in bleomycin-induced Sprague-Dawley rat lung fibrosis model assessed as decrease in alpha-smooth muscle actin level at 150 mg/kg, po administered daily for 28 days by Western blot analysis; assay type: functional, organism-based; conditions: time 28.0 day

SMILES | IC50 [1] [nM] | further results
COCCOC(=O)C1=C(C)NC(C)=C(C(=O)OC(C)C)C1c1cccc([N+](=O)[O-])c1 (stereo not drawn) [NIMODIPINE] | 1240 | Ratio IC50 (Homo sapiens): 5.8
Cc1ccc(=O)n(-c2ccccc2)c1 | – | Activity (Rattus norvegicus [2]): Active; Activity (Rattus norvegicus [3]): Active; Activity (Rattus norvegicus [4]): Active
CC1=C(C(=O)OCc2cncs2)C(c2ccc3c(cnn3C)c2)C(C(=O)OCc2cncs2)=C(C)N1 | 189 | –
COC(=O)C1=C(C)NC(C)=C(C(=O)OC)C1c1ccccc1[N+](=O)[O-] [NIFEDIPINE] | > 10000 | –
CCOC(=O)C1=C(C)NC(C)=C(C(=O)OC)C1c1cccc([N+](=O)[O-])c1 (stereo not drawn) [NITRENDIPINE] | 1850 | –
